# Several values for one entry are separate records, joined by “and”; a condition that tells them apart may be missing. Equal entries are not always repeated.
# Experiments:
# [1] = test system: human NSCLC lines; assay: Cytotox assays: chemotherapy dose response curves with or without EZH2 inhibitor, 4 days; format: cell-based
# Description: Cell lines were dissociated, counted and plated at 5000 cells per well in flat bottom opaque tissue culture treated 96 well plates (CytoOne). Edge wells were filled with PBS. The following day, 2× drug diluted in media was added to each well such that the well then contained 100 ul media with 1× drug concentration. After 4 days, Cell Titer Glo™ (Promega) was added and luminescence was read on a BioTec plate reader to determine relative cell number in each well. Data were averaged for triplicate or quadruplicate technical replicates, normalized to the untreated wells and input into GraphPad Prism software to extrapolate IC50.
# Cell lines were dissociated, counted and plated at 5000 cells per well in flat bottom opaque tissue culture treated 96 well plates (CytoOne). Edge wells were filled with PBS. The following day, 2× drug diluted in media was added to each well such that the well then contained 100 ul media with 1× drug concentration at the following doses: etoposide; 0, 0.1, 1, 3, 5, 7, 10, 50, 100, 500 μM, cisplatin; 0, 0.1, 1, 5, 10, 30, 70, 100, 500 μM, or doxorubicin; 0, 0.01, 0.1, 0.5, 1, 3, 5, 7, 10, 50 μM. […] Data were averaged for triplicate or quadruplicate technical replicates and normalized to the untreated wells. Results from three or four independent biological replicate experiments were input into […] PRISM™ software to extrapolate IC50 and s.e.m. of IC50 for a given cell line.
# [2] = test system: human NSCLC lines; assay: Growth rates over 10 day time-course (Cell Titer Glo), 12 cell lines; format: cell-based; conditions: 1 μM DZNep, 10 day time-course
# Description: FIG. 2A depicts a Western Blot for EZH2 and H3K27me3 performed on whole cell extracts 4 days after indicated treatments, β-actin shown as a loading control. FIG. 2B depicts a graph of the growth rates of matched shGFP and shGFP cells treated with 1 μM DZNep and assayed by Cell Titer Glo at days 3, 5, 7, and 10 post plating at equal densities. Average luminescence ±s.e.m. for 3 replicate wells is shown based on when each shGFP cell line reached logarithmic growth, * indicates p<0.03. FIG. 2C depicts a graph of the response to Etoposide. Cell lines were plated at equal densities and treated a range of etoposide doses with or without 1 μM DZNep. On the 4th day, cell viability was measured using Cell Titer Glo and the percent survival at each dose of etoposide was calculated. Dose response curves were generated for the no DZNep and DZNep treated cells using the GraphPad prism software and IC50s were extrapolated. The fold change±s.e.m. of etoposide IC50 in response to DZNep is plotted, n=4 biological replicates, * indicates p<0.05. Cell lines with mutations in Brg1, EGFR and B-Raf are indicated.
# [3] = test system: BRG1 mutant and BRG1 wild-type cell lines; assay: Anaphase bridge analysis; format: cell-based, human
# Description: To quantify anaphase bridges, cells were grown on 4-well cultures slides (Lab Tek II). Adherent cells were fixed with 4% paraformaldehyde for 20 min, washed and stained with Vectashield™ with 4′,6-diamidino-2-phenylindole (DAPI; Vector Labs). Images were taken of each anaphase structure, and the number of anaphases with bridges over the total number of anaphases (between 11 and 34 total anaphases per well of a 4-well chamber slide) was recorded for each of three or more independent biological replicate experiments.
compound,measurement,setting,value
"Nc1nccc2c1ncn2[C@@H]1C=C(CO)[C@@H](O)[C@H]1O [DZNep, 3-Deazaneplanocin A]",cell lines more sensitive to etoposide in the presence of DZNep,"[1]; 1 μM DZNep, 4 days, panel of 29 (Example 1) or 26 (Example 2) lines",16 of the 29 and 14 of the 26
same,"sensitivity to etoposide in the presence of DZNep, protected lines","[1]; H23, H460 and H441, 1 μM DZNep, 4 days",less sensitive
same,"sensitivity to etoposide in the presence of DZNep, sensitized lines","[1]; H157, HCC15, PC9, H157, A549, PC9, 1 μM DZNep, 4 days",more sensitive
same,pattern of sensitized and protected cells with cisplatin combined with DZNep,[1]; cis-platinum combined with DZNep,not observed
same,cell lines with reduced growth rates,[2],11 out of 12
same,anaphase bridging when challenged with DZNep,[3]; BRG1 mutant cell lines,increased anaphase bridging
same,anaphase bridging when challenged with DZNep,[3]; BRG1 wild-type lines,significant decrease
same,anaphase bridging (TopoII dysfunction) in response to DZNep,[3]; HCC15 control line,increase in TopoII dysfunction

# Reference: patent publication US9895390B2, “Methods and assays for combination treatment of cancer” (CHILDREN'S MEDICAL CENTER CORPORATION, priority 2012, dated 2018)
